# Columns and labels:
# [1] = tested on: mustard beetles (Phaedon cochleariae Fab); experiment: Relative toxicity to mustard beetles, topical micro drop; format: in vivo; conditions: 5-benzyl-3-furylmethyl (1R)-trans-chrysanthemate = 1000; inverse ratio of LD50; topical, 48 hours
# Method: (§1) The toxicity of these new esters was tested by the procedure described in detail in our above mentioned application and the following results were obtained:
# (§2) The insecticidal acitivity of the esters of the invention was assessed against houseflies and mustard beetles using the following techniques:
# Acetone solutions of the test compound were applied ventrally to adult mustard beetles using a micro drop applicator. The treated insects were maintained for 48 hours after which time kill is assessed. Two replicates of 40 to 50 mustard beetles were used at each dose level and 3 to 4 dose levels were used for each compound. Again, LD50 values were calculated and relative toxicities were calculated for the inverse ratios of LD50 (see Elliott et al, J. Sci. Food Agric. 20, 561, (1969)).
# (§3) Relative toxicities were calculated by comparison with 5-benzyl-3-furylmethyl(1R)-trans-chrysanthemate which is one of the most toxic chrysanthemate esters known to houseflies and mustard beetles, its toxicity being about 24 times that of allethrin to houseflies and 65 times that of allethrin to mustard beetles.
# [2] = tested on: houseflies (Musca domestica); experiment: Relative toxicity to houseflies, topical drop on thorax; format: in vivo; conditions: 5-benzyl-3-furylmethyl (1R)-trans-chrysanthemate = 1000; inverse ratio of LD50; topical, female flies
# Method: as §1, §2
# Female flies were treated on the thorax with a one microliter drop of insecticide dissolved in acetone. Two replicates of 15 flies were used at each dose rate and 6 dose rates were used per compound under test. After treatment, the flies were maintained at a temperature of 20° C.±1° and kill was assessed 24 and 48 hours after treatment. LD50 values were calculated in micrograms of insecticide per fly and relative toxicities were calculated from the inverse ratios of the LD50 values. (see Sawicki et al, Bulletin of the World Health Organization, 35,893, (1966) and Sawicki et al, Entomologia and Exp. Appl. 10, 253, (1967)).
# as §3
Compound,"Relative Toxicity, Mustard Beetles [1]","Relative Toxicity, Houseflies [2]"
"CC1(C)C(C=C(Cl)Cl)C1C(=O)OCC#CCOc1ccccc1 (racemic) [Compound ME5, 4-Phenoxybut-2-ynyl(1RS)-cis,trans-3-(2,2-dichlorovinyl)-2,2-dimethylcyclopropane carboxylate]",40,300
"CC1(C)C(C=C(Cl)Cl)C1C(=O)OC(C#N)c1coc(Cc2ccccc2)c1 (racemic) [Compound P21N, (αRS)-Cyano-5-benzyl-3-furylmethyl-(1RS)-cis-trans-3-(2,2-dichlorovinyl)-2,2-dimethyl cyclopropane carboxylate]",2000,100
"CC1(C)C(C=C(Cl)Cl)C1C(=O)OC(C#N)c1cccc(Oc2ccccc2)c1 (racemic) [Compound P29F, (αRS)-cyano-3-phenoxybenzyl(1RS)-cis-trans-2,2-dimethyl-3-(2,2-dichlorovinyl)-cyclopropane carboxylate]",–,1700
"CC1(C)[C@H](C=C(Cl)Cl)[C@H]1C(=O)OCc1cccc(C(=O)c2ccccc2)c1 (racemic) [Compound P39B, 3-benzoylbenzyl(1RS)-trans-2,2-dimethyl-3-(2,2-dichlorovinyl)-cyclopropane carboxylate]",590,10
"CC1(C)C(C=C(Cl)Cl)C1C(=O)OC1C=C(Cc2ccccc2)C(=O)C1 (racemic) [ME8, (±)-2-benzylcyclopentenon-4-yl(1RS)-cis,trans-3,(2,2-dichlorovinyl)-2,2-dimethylcyclopropane carboxylate]",265,50
CC1(C)[C@H](C=C(Cl)Cl)[C@H]1C(=O)OCc1cccc(Cc2ccccc2)c1 (relative stereo) [Compound P21I],420,170
CC1(C)[C@H](C(=O)OCc2cccc(Cc3ccccc3)c2)[C@@H]1C=C(Cl)Cl (relative stereo) [Compound P21J],350,360
"CC1(C)[C@H](C(=O)OC(C#N)c2cccc(Oc3ccccc3)c2)[C@@H]1C=C(Cl)Cl (relative stereo) [Compound P29G, (αRS)-cyano-3-phenoxybenzyl(1RS)-cis-2,2-dimethyl-3-(2,2-dichlorovinyl)-cyclopropane carboxylate]",2400,3800
"CC1(C)[C@H](C=C(Cl)Cl)[C@H]1C(=O)OC(C#N)c1cccc(Oc2ccccc2)c1 (relative stereo) [Compound P29H, (αRS)-cyano-3-phenoxybenzyl(1RS)-trans-2,2-dimethyl-3-(2,2-dichlorovinyl)-cyclopropane carboxylate]",750,1800
"CC1(C)[C@H](C=C(Cl)Cl)[C@H]1C(=O)OC(C#N)c1cccc(C(=O)c2ccccc2)c1 (relative stereo) [Compound P39F, (αRS)-cyano-3-benzoylbenzyl(1RS)-trans-2,2-dimethyl-3-(2,2-dichlorovinyl)-cyclopropane carboxylate]",600,80
"C=CC=CCC1=C(C)C(OC(=O)C2C(C=C(Cl)Cl)C2(C)C)CC1=O (single isomer, unassigned) [Compound P21M]",370,19
C=C(C)C1C(C(=O)OCc2coc(Cc3ccccc3)c2)C1(C)C (centres unmarked) [F],–,21
CC=C(C)C1C(C(=O)OCc2coc(Cc3ccccc3)c2)C1(C)C (centres unmarked) [G],–,18
